# Key:
# TNFα [1] = test: Inhibition of TNFα expression in LPS-activated dendritic cells (ELISA of supernatants); type: cell-based, C57BL/6J male mice; settings: for TNFα expression level relative to LPS alone: LPS-activated dendritic cells; for TNFα (pg/mL): 100 ng/mL LPS 18 h
# Description: (§1) The dendritic cells at 1×10^6 cells/mL were treated with benfotiamine and fursultiamine at different concentrations of 0, 1, 10, and 100 and allithiamine at different concentrations of 0, 1, and 10 μM.
# Thereafter, the dendritic cells were activated with 100 ng/mL LPS for 18 hours.
# TNFα [2] = test: as above; type: cell-based, C57BL/6J male mice; settings: for TNFα: dendritic cells not stimulated by LPS
# [3] = test system: LPS-induced sepsis mouse model; test: Survival rate of murine sepsis model, allithiamine treatment; type: in vivo, C57BL/6J male mice
# Description: The mice were intravenously (I.V.) administered 5 mg/kg allithiamine immediately before intraperitoneal injection of 50 mg/kg LPS, and then the survival rates were monitored (allithiamine 5 mg/kg co-treatment). In addition, the mice were intravenously administered 5 mg/kg allithiamine three hours after LPS injection, and then the survival rates were monitored (allithiamine 5 mg/kg 3 h-delayed co-treatment), and the results are shown in FIG. 3 and Table 2.
# CD40 = CD40 expression in CD11c+ dendritic cells by flow cytometry; type: cell-based, C57BL/6J male mice
# Description: as §1
# (§2) The dendritic cells were measured for CD40 and CD86 in CD11c+ cells by flow cytometry, and the results are shown in FIGS. 6A and 6B and Tables 5 and 6.
# TNFα [4] = test: Inhibition of TNFα expression in vivo (allithiamine along with LPS); design: species or system mice
# Description: The inhibition of TNFα expression in vivo was investigated by the administration of 5 mg/kg allithiamine along with 50 mg/kg LPS, and the results are shown in FIG. 7A and Table 7.
# CD86 [5] = test: CD86 expression in CD11c+ dendritic cells by flow cytometry; type: cell-based, C57BL/6J male mice
# Description: as §1, §2
# IL-1β = test: Inhibition of IL-1β expression in LPS-primed, ATP-treated dendritic cells; type: cell-based, C57BL/6J male mice; settings: for IL-1β: LPS priming + 5 mM ATP
# Description: Bone marrow was extracted from the legs of six- to eight-week old C57BL/6J male mice, and subjected to red blood cell (RBC) lysis, followed by differentiation into dendritic cells in RPMI 1640 medium (10% fetal bovine serum (FBS) and 1% penicillin-streptomycin) along with 20 ng/ml granulocyte-macrophage colony-stimulating factor (GM-CSF) for six days. The dendritic cells at 1×10^6 cells/mL were treated with benfotiamine and fursultiamine at different concentrations of 0, 1, 10, and 100 and allithiamine at different concentrations of 0, 1, and 10 μM.
# The dendritic cells were subjected to pro-IL1b priming by the treatment with 500 ng/mL LPS for 3 hours, and then treated with benfotiamine at 0, 10, 50, or 100 and fursultiamine at 0, 10, 50, or 100 μM, for 15 minutes. Then, pro-IL1b was converted into IL-1β through pro-IL1b cleavage, followed by 5 mM ATP treatment for inducing inflammasome formation.
# CD86 [6] = test: CD86 expression in CD11c+ dendritic cells by flow cytometry; type: cell-based, C57BL/6J male mice; settings: 50 μM, 100 ng/mL LPS
# [7] = 1 μM, dendritic cells, 100 ng/mL LPS
# [8] = 10 μM, dendritic cells not stimulated by LPS
# [9] = 10 μM, dendritic cells, 100 ng/mL LPS
# [10] = allithiamine 5 mg/kg along with LPS 50 mg/kg
# [11] = 100 μM, dendritic cells not stimulated by LPS
# [12] = 100 μM, dendritic cells, 100 ng/mL LPS
smiles,measurement,setting,value
"C=CCSS/C(CCO)=C(/C)N(C=O)Cc1cnc(C)nc1N [Allithiamine, allithiamine]",TNFα expression level relative to LPS alone,TNFα [1]; 1 μM,about 88.68%
same,TNFα (pg/mL),"TNFα [1]; 1 μM, dendritic cells","4,654.84 pg/mL"
same,TNFα expression level relative to LPS alone,TNFα [1]; 10 μM,about 74.68%
same,TNFα (pg/mL),"TNFα [1]; 10 μM, dendritic cells","3,919.75 pg/mL"
same,TNFα,TNFα [2]; 10 μM,78.51 pg/mL
same,Percent survival (%),"[3]; 5 mg/kg i.v. 3 h-delayed treatment (3 h after 50 mg/kg LPS i.p.), 0 h",100%
same,Percent survival (%),"[3]; 5 mg/kg i.v. 3 h-delayed treatment, 50 mg/kg LPS, 20 h",100%
same,Percent survival (%),"[3]; 5 mg/kg i.v. 3 h-delayed treatment, 50 mg/kg LPS, 24 h",100%
same,Percent survival (%),"[3]; 5 mg/kg i.v. 3 h-delayed treatment, 50 mg/kg LPS, 28 h",83.3%
same,Percent survival (%),"[3]; 5 mg/kg i.v. 3 h-delayed treatment, 50 mg/kg LPS, 32 h",83.3%
same,Percent survival (%),"[3]; 5 mg/kg i.v. 3 h-delayed treatment, 50 mg/kg LPS, 36 h",83.3%
same,Percent survival (%),"[3]; 5 mg/kg i.v. 3 h-delayed treatment, 50 mg/kg LPS, 40 h",83.3%
same,Percent survival (%),"[3]; 5 mg/kg i.v. 3 h-delayed treatment, 50 mg/kg LPS, 44 h",66.7%
same,Percent survival (%),"[3]; 5 mg/kg i.v. 3 h-delayed treatment, 50 mg/kg LPS, 48 h",66.7%
same,Percent survival (%),"[3]; 5 mg/kg i.v. 3 h-delayed treatment, 50 mg/kg LPS, 52 h",66.7%
same,Percent survival (%),"[3]; 5 mg/kg i.v. 3 h-delayed treatment, 50 mg/kg LPS, 56 h",66.7%
same,Percent survival (%),"[3]; 5 mg/kg i.v. 3 h-delayed treatment, 50 mg/kg LPS, 60 h",66.7%
same,Percent survival (%),"[3]; 5 mg/kg i.v. co-treatment (immediately before 50 mg/kg LPS i.p.), 0 h",100%
same,Percent survival (%),"[3]; 5 mg/kg i.v. co-treatment, 50 mg/kg LPS, 20 h",100%
same,Percent survival (%),"[3]; 5 mg/kg i.v. co-treatment, 50 mg/kg LPS, 24 h",83.3%
same,Percent survival (%),"[3]; 5 mg/kg i.v. co-treatment, 50 mg/kg LPS, 28 h",83.3%
same,Percent survival (%),"[3]; 5 mg/kg i.v. co-treatment, 50 mg/kg LPS, 32 h",83.3%
same,Percent survival (%),"[3]; 5 mg/kg i.v. co-treatment, 50 mg/kg LPS, 36 h",66.7%
same,Percent survival (%),"[3]; 5 mg/kg i.v. co-treatment, 50 mg/kg LPS, 40 h",66.7%
same,Percent survival (%),"[3]; 5 mg/kg i.v. co-treatment, 50 mg/kg LPS, 44 h",66.7%
same,Percent survival (%),"[3]; 5 mg/kg i.v. co-treatment, 50 mg/kg LPS, 48 h",66.7%
same,Percent survival (%),"[3]; 5 mg/kg i.v. co-treatment, 50 mg/kg LPS, 52 h",66.7%
same,Percent survival (%),"[3]; 5 mg/kg i.v. co-treatment, 50 mg/kg LPS, 56 h",66.7%
same,Percent survival (%),"[3]; 5 mg/kg i.v. co-treatment, 50 mg/kg LPS, 60 h",66.7%
same,CD40 (Mean fluorescence intensity; MFI),CD40; [7],"1,998 MFI"
same,CD40 expression level relative to LPS alone,"CD40; 10 μM, dendritic cells",about 49%
same,CD40 (Mean fluorescence intensity; MFI),CD40; [8],253 MFI
same,CD40 (Mean fluorescence intensity; MFI),CD40; [9],982 MFI
same,Reduction of TNFα expression relative to LPS alone,TNFα [4]; [10],about 46.494%
same,TNFα (pg/mL),TNFα [4]; [10],"2,084.883 pg/mL"
same,TNFα,"TNFα [4]; allithiamine 5 mg/kg, without LPS",82.442 pg/mL
same,CD86 (Mean fluorescence intensity; MFI),CD86 [5]; [7],"2,184 MFI"
same,CD86 expression level relative to LPS alone,"CD86 [5]; 10 μM, dendritic cells",about 64%
same,CD86 (Mean fluorescence intensity; MFI),CD86 [5]; [8],304 MFI
same,CD86 (Mean fluorescence intensity; MFI),CD86 [5]; [9],"1,704 MFI"
"C/C(=C(\CCOP(=O)(O)O)SC(=O)c1ccccc1)N(C=O)Cc1cnc(C)nc1N [Benfotiamine, benfotiamine]",TNFα (pg/mL),"TNFα [1]; 1 μM, dendritic cells","4,909.05 pg/mL"
same,TNFα (pg/mL),"TNFα [1]; 10 μM, dendritic cells","4,614.42 pg/mL"
same,TNFα (pg/mL),"TNFα [1]; 100 μM, dendritic cells","4,696.43 pg/mL"
same,Inhibition of the TNFα expression increased by LPS (in words),"TNFα [1]; dendritic cells, up to 100 μM",could not inhibit
same,TNFα (pg/mL),"TNFα [2]; 50 μM, dendritic cells, 100 ng/mL LPS 18 h","4,806.97 pg/mL"
same,TNFα,TNFα [2]; 100 μM,84.82 pg/mL
same,CD40 (Mean fluorescence intensity; MFI),CD40; [7],"2,134 MFI"
same,CD40 (Mean fluorescence intensity; MFI),CD40; [9],"1,975 MFI"
same,CD40 (Mean fluorescence intensity; MFI),CD40; [11],248 MFI
same,CD40 (Mean fluorescence intensity; MFI),CD40; [12],"1,803 MFI"
same,Inhibition of the CD40 expression increased by LPS (in words),"CD40; dendritic cells, up to 100 μM",could not inhibit
same,IL-1β,IL-1β; 10 μM,912.2951 pg/mL
same,IL-1β,IL-1β; 50 μM,914.9398 pg/mL
same,IL-1β,IL-1β; 100 μM,914.2512 pg/mL
same,Inhibition of the IL-1β expression increased by LPS (in words),IL-1β; up to 100 μM,could not inhibit
same,CD86 (Mean fluorescence intensity; MFI),CD86 [6],"2,448 MFI"
same,CD86 (Mean fluorescence intensity; MFI),CD86 [5]; [7],"2,734 MFI"
same,CD86 (Mean fluorescence intensity; MFI),CD86 [5]; [9],"2,198 MFI"
same,CD86 (Mean fluorescence intensity; MFI),CD86 [5]; [11],382 MFI
same,CD86 (Mean fluorescence intensity; MFI),CD86 [5]; [12],430 MFI
same,Inhibition of the CD86 expression increased by LPS (in words),"CD86 [5]; dendritic cells, up to 100 μM",could not inhibit

# Source: patent US11872228B2, “Pharmaceutical composition containing thiamine derivative for prevention or treatment of sepsis” (KYUNGPOOK NATIONAL UNIVERSITY INDUSTRY-ACADEMIC COOPERATION …, priority 2021, dated 2024)
